Data from patent US6987017B2, “Methods for producing L-isoleucine” (Massachusetts Institute of Technology, priority 1999, dated 2006).

What was measured:
[1] = system: C. glutamicum ATCC 21799 pAPE7 tdcB; format: cell-based, Corynebacterium glutamicum; conditions: defined medium with supplement (casamino acids 2 g·l^−1, amino acids 0.5 g·l^−1 each), 150 mg/l IPTG, flasks
Description: Defined medium for Corynebacterium glutamicum contained the following ingredients (per liter): glucose, 35 g; NaCl, 2 g; citrate (trisodium salt, dihydrate), 3 g; CaCl2.2H2O, 0.1 g; MgSO4.7H2O, 0.5 g; Na2EDTA.2H2O, 75 mg; FeSO4.7H2O, 50 mg; 100× salt solution, 20 ml; K2HPO4, 4 g; KH2PO4, 2 g; (NH4)2SO4, 7.5 g; urea, 3.75 g; leucine 0.85 g; thiamine, 0.45 mg; biotin, 0.45 mg; pantothenic acid, 4.5 mg (pH 7.0). The salt solution contained the following ingredients (per liter): MnSO4, 200 mg; Na2B4O7.10H2O, 20 mg; (NH4)6Mo7O24.4H2O, 10 mg; FeCl3.6H2O, 200 mg; ZnSO4.7H2O, 50 mg; CuCl2.2H2O, 20 mg (pH 2.0). When appropriate, kanamycin (150 mg/liter) and isopropyl-β-D-thiogalactopyranoside (IPTG) (150 mg/l) was used.
For the growth study with amino acid supplements, the defined medium was complemented with Bacto® casamino acids (Difco, Detroit, Mich.) at a concentration of 2 g·l^−1 or with amino acid (alanine, glycine, methionine or valine) at a concentration of 0.5 g·l^−1 each.
Valine and methionine were chosen to test due to their direct connection with the isoleucine pathway, and alanine and glycine for their indirect connection through the use of pyruvate, which is also a substrate for the isoleucine pathway.

[2] = target: mutated threonine dehydratase V323A (Corynebacterium glutamicum, UniProt Q04513, V323A); conditions: 50 mM isoleucine; Morbach et al. 1995; cited from earlier work
Sequence of mutated threonine dehydratase V323A (Q04513 whole entry V323A): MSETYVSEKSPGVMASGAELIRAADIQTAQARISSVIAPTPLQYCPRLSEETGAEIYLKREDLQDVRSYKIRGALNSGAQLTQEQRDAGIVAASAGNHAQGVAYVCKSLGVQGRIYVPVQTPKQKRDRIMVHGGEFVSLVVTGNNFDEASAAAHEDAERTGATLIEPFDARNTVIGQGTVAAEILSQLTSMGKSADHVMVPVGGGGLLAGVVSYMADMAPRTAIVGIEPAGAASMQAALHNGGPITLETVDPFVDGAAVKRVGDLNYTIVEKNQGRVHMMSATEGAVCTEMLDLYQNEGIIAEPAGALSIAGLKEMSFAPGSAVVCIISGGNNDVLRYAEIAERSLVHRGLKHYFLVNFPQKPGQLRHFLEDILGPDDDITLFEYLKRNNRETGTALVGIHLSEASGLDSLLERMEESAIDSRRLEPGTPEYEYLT

[3] = target: T1, endogenous threonine dehydratase (encoded by ilvA) (Corynebacterium glutamicum, UniProt Q04513); conditions: C. glutamicum MH20-22B; Morbach et al. 1995; cited from earlier work
T1 construct: host or cells: Corynebacterium glutamicum MH20-22B
T1 sequence (Q04513 1-436): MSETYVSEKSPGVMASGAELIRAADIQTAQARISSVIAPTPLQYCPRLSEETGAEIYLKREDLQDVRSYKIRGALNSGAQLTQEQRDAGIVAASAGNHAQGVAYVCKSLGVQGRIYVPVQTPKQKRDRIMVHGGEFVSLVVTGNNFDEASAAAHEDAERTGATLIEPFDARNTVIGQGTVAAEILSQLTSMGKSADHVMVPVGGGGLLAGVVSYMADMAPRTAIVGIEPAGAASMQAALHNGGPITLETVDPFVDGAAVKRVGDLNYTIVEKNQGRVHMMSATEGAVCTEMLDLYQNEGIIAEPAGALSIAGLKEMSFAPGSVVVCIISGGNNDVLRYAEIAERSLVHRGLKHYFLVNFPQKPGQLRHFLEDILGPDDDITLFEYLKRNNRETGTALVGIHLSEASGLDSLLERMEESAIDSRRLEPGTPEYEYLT

[4] = target: T2, catabolic threonine dehydratase (Escherichia coli, UniProt P0AGF6); assay: Isoleucine sensitivity of catabolic threonine dehydratase (tdcB) in crude extracts of C. glutamicum ATCC 21799 (pAPE7); format: biochemical, E. coli
T2 construct: tdcB and ilvA coding regions were amplified by the Polymerase Chain Reaction (PCR); expressed in transfected cells; host or cells: Corynebacterium glutamicum ATCC 21799 carrying pAPE7 (trc:tdcB); cell-free crude extract
T2 sequence (P0AGF6 whole entry): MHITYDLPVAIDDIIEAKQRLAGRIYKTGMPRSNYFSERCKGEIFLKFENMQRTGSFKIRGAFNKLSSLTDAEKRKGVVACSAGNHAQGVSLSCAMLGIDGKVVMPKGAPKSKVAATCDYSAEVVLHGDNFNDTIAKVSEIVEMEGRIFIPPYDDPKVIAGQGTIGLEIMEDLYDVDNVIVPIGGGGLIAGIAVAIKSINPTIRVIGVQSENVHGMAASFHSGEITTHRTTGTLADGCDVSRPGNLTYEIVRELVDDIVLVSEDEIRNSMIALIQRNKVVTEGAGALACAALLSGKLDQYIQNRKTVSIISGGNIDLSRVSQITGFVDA
Description: (§1) Enzyme assays were performed with cell free crude extracts, prepared by the following method. Cells were harvested by centrifugation for 10 min at 5000×g at 4° C. and washed with 10 ml of the enzyme assay buffer (100 mM Tris-HCl, pH 7.5, containing 20 mM KCl, 5 mM MnSO4, 0.1 mM EDTA, and 2 mM dithiothreitol) (Jetten, M. S. M., et al., Appl. Microbiol. Biotechnol. 41:47-52 (1994)). The cell pellet was resuspended in the same buffer containing a protease inhibitor cocktail (Boehringer Mannheim, Germany) so that the final concentration was 20 g dry cell weight·l^−1. Resuspended cells were disrupted with a glass bead mixer (5100 Mixer-Mill, SPEX, Metuchen, N.J.). 2.5 ml of bacterial suspension was poured in a frozen steel vial containing 5 g of cold 106 μm-diameter glass beads (Sigma) and one stainless steel ball bearing. The vials containing bacterial suspension and glass beads were vigorously shaken at 4° C. using the mixer by 10 cycles of 30 sec shaking separated by rest cycles of one minute. Cell debris were removed by centrifugation for 20 min at 47000×g at 4° C. The supernatant (crude extract) was then tested for enzyme activity. Protein concentrations were determined by the method of Bradford (Bradford, M. M., Anal. Biochem. 72:248-254 (1976)) with the Bio-Rad (Hercules, Calif.) protein assay kit using bovine serum albumin as a standard.
(§2) For determination of threonine dehydratase activity, the assay mixture contained 40 mM threonine, 1 mM pyridoxal phosphate, crude extract and 100 mM potassium phosphate buffer, pH 8.0 in a final volume of 1 ml. […] After a 15 min incubation at room temperature, the amount of alpha-ketobutyrate formed at various intervals was measured spectrophotometrically as its semicarbazone derivative at 254 nm (=0.52 mmol·cm^−1). […]
In order to confirm the insensitivity to isoleucine of catabolic dehydratase expressed in a lysine producing strain of C. glutamicum, threonine dehydratase activities were measured in crude extracts of strains ATCC21799 and ATCC21799 carrying pAPE7 at different concentrations of isoleucine (FIG. 3). […]

[5] = target: T3, Anabolic threonine dehydratase (Corynebacterium glutamicum, UniProt Q04513); assay: Isoleucine sensitivity of anabolic (native) threonine dehydratase in crude extracts of C. glutamicum ATCC21799; format: biochemical; conditions: ATCC 21799 crude extract
T3 construct: endogenous in cells; host or cells: Corynebacterium glutamicum ATCC 21799; cell-free crude extract
Description: as §1, with “2.5 ml of bacterial suspension was poured in a frozen steel vial containing 5 g of cold 106 μm-diameter glass beads (Sigma) and one stainless steel ball bearing. The vials containing bacterial suspension and glass beads were vigorously shaken at 4° C. using the mixer by 10 cycles of 30 sec shaking separated by rest cycles of one minute. Cell debris were removed by centrifugation for 20 min at 47000×g at 4° C. The supernatant (crude extract) was then tested for enzyme activity.” left out
as §2

tdcB gene product = target: T4, tdcB gene product (Escherichia coli, UniProt P0AGF6); assay: Threonine dehydratase activity of E. coli AB1255 (pAPE5) crude extracts in the presence of isoleucine; format: biochemical; conditions: isoleucine up to 47 mM; consistent activity
T4 construct: tdcB and ilvA coding regions were amplified by the Polymerase Chain Reaction (PCR); expressed in transfected cells; host or cells: E. coli AB1255 carrying pAPE5 (pTrc99a-based, trc:tdcB); cell-free crude extract
T4 sequence (P0AGF6 whole entry): as above
Description: as §1, with “2.5 ml of bacterial suspension was poured in a frozen steel vial containing 5 g of cold 106 μm-diameter glass beads (Sigma) and one stainless steel ball bearing. The vials containing bacterial suspension and glass beads were vigorously shaken at 4° C. using the mixer by 10 cycles of 30 sec shaking separated by rest cycles of one minute. Cell debris were removed by centrifugation for 20 min at 47000×g at 4° C. The supernatant (crude extract) was then tested for enzyme activity.” left out
as §2

[6] = system: C. glutamicum ATCC 21799 harboring pAPE13; assay: IPTG induction of threonine dehydratase in batch fermentation of ATCC 21799 (pAPE13); format: cell-based, Corynebacterium glutamicum; conditions: IPTG 150 mg/l added at 1.5 g cell dry weight·l^−1
Description: (§3) For determination of threonine dehydratase activity, the assay mixture contained 40 mM threonine, 1 mM pyridoxal phosphate, crude extract and 100 mM potassium phosphate buffer, pH 8.0 in a final volume of 1 ml. The reaction was started with the addition of threonine and terminated by the addition of 1 ml solution containing 1% semicarbazide and 0.9% sodium acetate. After a 15 min incubation at room temperature, the amount of alpha-ketobutyrate formed at various intervals was measured spectrophotometrically as its semicarbazone derivative at 254 nm (=0.52 mmol·cm^−1). Relevant standards and controls were carried out in the same manner. For specific determination of catabolic threonine dehydratase activity, the assay mixture contained 20 mM isoleucine in order to inhibit the anabolic threonine dehydratase.
(§4) In FIGS. 3-6, the results of the enzymatic assays are expressed in terms of relative expression of threonine dehydratase compared to wild type expression as the ratio between the specific activity of the enzyme of a strain and the specific activity of the wild type. Each assay was replicated five times, and the results were reproducible within 15%.
(§5) Starter cultures of Corynebacterium glutamicum were prepared by transferring one colony from LB agar plates to 5 ml of LB medium. These cultures were incubated for two days at 30° C. and 200 rpm. […]

[7] = system: C. glutamicum ATCC 21799 harboring pAPE7; assay: IPTG induction of catabolic threonine dehydratase in batch fermentation of ATCC 21799 (pAPE7); format: cell-based, Corynebacterium glutamicum; conditions: IPTG 150 mg/l
Description: as §3, §4, §5

C. glutamicum ATCC 21799 = assay: IPTG addition in batch fermentation of wild type ATCC 21799; format: cell-based, Corynebacterium glutamicum; conditions: wild type culture, IPTG 150 mg/l
Description: as §3
In FIGS. 3-6, the results of the enzymatic assays are expressed in terms of relative expression of threonine dehydratase compared to wild type expression as the ratio between the specific activity of the enzyme of a strain and the specific activity of the wild type. […]
C. glutamicum ATCC 21799 was grown twice in defined medium in a 4-liter reactor. […] A concentration of isoleucine of 50 mg·l^−1 was detected at the end of both cultures. Oxygenation of the cultures being sufficient, neither lactate nor acetate was detected during the fermentation.

AHAS = conditions: Eggeling et al. 1987; cited from earlier work

C[C@H](N)C(=O)O [Alanine, alanine]
Specific growth rate [1]: 0.17 h⁻¹

CC(C)[C@H](N)C(=O)O [Valine, valine]
Specific growth rate [1]: 0.24 h⁻¹

CC[C@H](C)[C@H](N)C(=O)O [isoleucine]
remaining activity of mutated threonine dehydratase V323A [2]: 22% | isoleucine concentration giving complete inhibition of the endogenous threonine dehydratase [3]: 5 mM | remaining activity at 50000 µM ([4]; 50 mM isoleucine, read-out: remaining activity of catabolic threonine dehydratase of E. coli): 70 to 80% | inhibition at 200000 µM ([4]; 200 mM isoleucine): 40% | retained original activity of catabolic threonine dehydratase ([4]; 200 mM isoleucine): 60% | isoleucine concentration that totally inhibits the native (anabolic) threonine dehydratase [5]: 15 mM | threonine dehydratase activity of AB1255 (pAPE5) extracts in the presence of isoleucine (tdcB gene product): about 80 μmol product·min^−1·mg protein^−1

CSCC[C@H](N)C(=O)O [Methionine, methionine]
Specific growth rate [1]: 0.26 h⁻¹

NCC(=O)O [Glycine, glycine]
Specific growth rate [1]: 0.17 h⁻¹

CC(C)S[C@@H]1O[C@H](CO)[C@H](O)[C@H](O)[C@H]1O [IPTG, isopropyl-β-D-thiogalactopyranoside]
increase in the level of threonine dehydratase after addition of IPTG [6]: 20 fold | catabolic threonine dehydratase concentration relative to original enzyme after addition of IPTG [7]: 15 fold | effect of IPTG addition on threonine dehydratase (C. glutamicum ATCC 21799): did not lead to an increase

CCC(=O)C(=O)O [alpha-ketobutyrate]
affinity of AHAS for alpha-ketobutyrate relative to pyruvate (AHAS): 3 fold
